The values below come from publication PMC8629109 (Journal of medicinal chemistry, 2020).

The nature of data set [1]: Rat liver microsomal stability. As to conditions: Sprague-Dawley, liver microsomes, pH 7.4. Type of data set: in vitro ADME. A general note: Liver microsomes are vesicles of endoplasmic reticulum, rich in cytochrome P450 enzymes.
The target of another data set is recombinant human P-gp (Homo sapiens, UniProt P08183). In words: Pgp-Glo assay, P-gp ATPase activity. As to conditions: compared with basal and verapamil activities; test compound 200 μM.
recombinant human P-gp, sequence (P08183 whole entry): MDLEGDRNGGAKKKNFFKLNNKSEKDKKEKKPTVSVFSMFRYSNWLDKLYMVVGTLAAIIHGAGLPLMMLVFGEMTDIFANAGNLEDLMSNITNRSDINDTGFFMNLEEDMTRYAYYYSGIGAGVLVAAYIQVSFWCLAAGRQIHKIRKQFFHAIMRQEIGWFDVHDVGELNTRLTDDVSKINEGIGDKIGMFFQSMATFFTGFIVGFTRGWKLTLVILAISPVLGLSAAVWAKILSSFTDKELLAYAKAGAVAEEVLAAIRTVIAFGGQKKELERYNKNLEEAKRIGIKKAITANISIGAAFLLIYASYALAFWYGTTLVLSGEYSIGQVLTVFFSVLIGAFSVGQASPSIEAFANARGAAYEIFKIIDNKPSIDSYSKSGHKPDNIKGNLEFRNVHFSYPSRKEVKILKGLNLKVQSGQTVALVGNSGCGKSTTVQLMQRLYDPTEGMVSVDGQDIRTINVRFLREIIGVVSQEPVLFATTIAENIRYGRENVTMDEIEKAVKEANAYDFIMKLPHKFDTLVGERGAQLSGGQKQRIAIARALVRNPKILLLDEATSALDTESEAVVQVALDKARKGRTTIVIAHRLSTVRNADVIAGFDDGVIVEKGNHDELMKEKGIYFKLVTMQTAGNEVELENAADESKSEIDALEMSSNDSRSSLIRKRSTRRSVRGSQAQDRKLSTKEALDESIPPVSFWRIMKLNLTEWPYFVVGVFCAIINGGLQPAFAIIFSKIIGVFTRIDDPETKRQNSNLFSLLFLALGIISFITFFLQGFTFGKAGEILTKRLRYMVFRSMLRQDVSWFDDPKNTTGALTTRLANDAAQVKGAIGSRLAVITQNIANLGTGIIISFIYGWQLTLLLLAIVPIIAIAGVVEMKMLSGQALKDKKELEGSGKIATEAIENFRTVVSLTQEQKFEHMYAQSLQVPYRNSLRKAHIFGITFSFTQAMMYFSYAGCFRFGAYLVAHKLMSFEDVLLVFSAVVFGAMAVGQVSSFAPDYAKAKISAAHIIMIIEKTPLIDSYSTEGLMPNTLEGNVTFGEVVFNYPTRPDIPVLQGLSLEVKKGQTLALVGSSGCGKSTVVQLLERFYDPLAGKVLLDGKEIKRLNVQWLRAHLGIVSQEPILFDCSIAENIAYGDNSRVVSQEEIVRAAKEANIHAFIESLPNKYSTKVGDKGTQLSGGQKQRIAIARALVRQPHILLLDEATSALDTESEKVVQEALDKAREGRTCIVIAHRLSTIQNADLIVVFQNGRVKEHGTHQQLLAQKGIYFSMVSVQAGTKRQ
Data set [2] in a line: Solution stability in aqueous buffers. Type of data set: physicochemical.
Data set [3] can be described thus: Plasma stability in rat serum. Format: in vitro ADME. The conditions noted are these: 37 °C.
Data set [4] addresses T1, mGluR2 (Homo sapiens, UniProt Q14416). In words: Competitive binding assay with [3H]JNJ-46281222 in mGluR2 transfected CHO cells.
In data set [5] the test system is other mGluR subtypes (mGluR1, mGluR3, mGluR4, mGluR5, mGluR6, mGluR8). Description: Selectivity among mGluR subtypes. The conditions noted are these: versus mGluR2.
For data set [6], the target named is mGluR2 (Rattus norvegicus, UniProt P31421). Description: PET imaging and blocking studies in rat brain. Type of data set: in vivo, Sprague-Dawley rats. The conditions noted are these: pretreatment 4 mg/kg i.v. 10 min before [11C]13, 10–30 min time window.
mGluR2 (Rattus norvegicus, UniProt P31421), sequence (P31421 19-872): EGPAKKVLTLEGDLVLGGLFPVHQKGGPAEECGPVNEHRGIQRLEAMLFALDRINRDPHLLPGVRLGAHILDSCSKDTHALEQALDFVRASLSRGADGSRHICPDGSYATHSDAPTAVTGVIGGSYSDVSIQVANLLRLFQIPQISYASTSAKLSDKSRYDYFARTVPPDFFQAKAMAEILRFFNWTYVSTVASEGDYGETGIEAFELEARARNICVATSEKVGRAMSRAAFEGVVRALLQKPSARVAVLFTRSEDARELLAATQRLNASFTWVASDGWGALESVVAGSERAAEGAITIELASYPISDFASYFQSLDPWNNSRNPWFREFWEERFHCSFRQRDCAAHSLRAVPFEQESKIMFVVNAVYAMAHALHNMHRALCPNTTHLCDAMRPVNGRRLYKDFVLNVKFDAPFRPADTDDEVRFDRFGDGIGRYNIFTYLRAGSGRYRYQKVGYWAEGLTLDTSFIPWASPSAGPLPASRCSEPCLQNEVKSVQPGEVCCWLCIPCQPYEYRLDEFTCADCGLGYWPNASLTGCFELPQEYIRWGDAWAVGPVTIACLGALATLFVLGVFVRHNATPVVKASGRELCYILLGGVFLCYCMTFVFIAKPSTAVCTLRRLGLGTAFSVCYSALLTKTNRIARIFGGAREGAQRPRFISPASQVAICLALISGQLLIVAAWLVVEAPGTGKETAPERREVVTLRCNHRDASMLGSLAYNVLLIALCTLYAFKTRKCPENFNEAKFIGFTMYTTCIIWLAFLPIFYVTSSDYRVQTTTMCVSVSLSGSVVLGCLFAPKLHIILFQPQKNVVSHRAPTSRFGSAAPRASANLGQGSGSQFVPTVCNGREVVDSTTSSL
The target in data set [7] is T1, mGluR2. In words: GloSensor cAMP biosensor assay, mGluR2 PAM activity. The conditions noted are these: read-out: EC50, mGluR2 PAM activity; in the presence of EC20 amount of L-glutamate; intracellular cAMP.
For data set [8] the following is noted: PAMPA high / low permeability standard, value as stated, ref not given; cited from earlier work. On the technique in general: PAMPA measures passive passage across an artificial lipid membrane.

Read-outs that look alike come from different tables or passages of the source.

T1 sequence (Q14416 19-872): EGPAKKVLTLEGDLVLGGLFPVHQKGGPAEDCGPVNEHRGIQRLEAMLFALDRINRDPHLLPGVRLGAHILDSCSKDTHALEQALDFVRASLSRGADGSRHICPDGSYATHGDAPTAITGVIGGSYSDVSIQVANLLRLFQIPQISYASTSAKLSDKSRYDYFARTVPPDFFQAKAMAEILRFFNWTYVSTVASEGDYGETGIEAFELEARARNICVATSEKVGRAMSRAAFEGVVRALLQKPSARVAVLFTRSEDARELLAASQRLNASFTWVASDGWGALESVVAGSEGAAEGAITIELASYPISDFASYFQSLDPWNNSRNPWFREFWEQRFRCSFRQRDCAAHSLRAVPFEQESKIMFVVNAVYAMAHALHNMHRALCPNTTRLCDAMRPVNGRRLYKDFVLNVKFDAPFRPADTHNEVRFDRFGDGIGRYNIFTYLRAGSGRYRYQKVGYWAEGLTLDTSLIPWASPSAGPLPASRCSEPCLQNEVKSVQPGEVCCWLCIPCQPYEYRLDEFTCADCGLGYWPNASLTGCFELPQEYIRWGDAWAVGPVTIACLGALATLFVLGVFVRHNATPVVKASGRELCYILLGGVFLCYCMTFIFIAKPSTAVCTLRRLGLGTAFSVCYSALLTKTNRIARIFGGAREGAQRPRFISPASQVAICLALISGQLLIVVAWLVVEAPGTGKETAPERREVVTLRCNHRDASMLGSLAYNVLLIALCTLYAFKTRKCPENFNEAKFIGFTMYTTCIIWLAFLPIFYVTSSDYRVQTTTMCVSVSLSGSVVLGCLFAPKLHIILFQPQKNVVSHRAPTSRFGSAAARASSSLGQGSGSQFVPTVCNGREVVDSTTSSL

As to `COc1cc(C(F)(F)F)ccc1C1CCN(Cc2nc3ncccc3n2C)CC1` [Compound 13, 2-((4-(2-Methoxy-4-(trifluoromethyl)phenyl)piperidin-1-yl)methyl)-1-methyl-1H-imidazo[4,5-b]pyridine], the half-life – broadly, the time needed for the level to fall by half in the phase considered – at 3 μM in [1] came to 1.24 h. Besides, the “P-gp ATPase activity” value on recombinant human P-gp was “moderate”. Also, the P-gp substrate assessment entry on recombinant human P-gp was “not a P-gp substrate”. In addition, the “The solution stability: the intact ± SEM at 120 min” value in data set [2] (pH = 5.0, 37 °C) was 95.3 ± 0.3%; in [2] (pH = 7.4, 37 °C), 94.5 ± 0.4%; in data set [2] (pH = 9.4, 37 °C), 96.1 ± 0.7%. The “The plasma stability: the intact ± SEM at 120 min” value in data set [3] is 96.6 ± 2.1%. At mGluR2 [4], the IC50 – broadly, the point on the concentration scale where inhibition reaches its midpoint – was 0.0076 ± 0.0009 µM. In addition, the “selectivity against other mGluR subtypes” value in data set [5] is on record as > 100 fold. Moreover, at mGluR2 [6], the “enhancement of radioactivity uptake in the different brain areas” value is given as 33–49%.
Consider `COc1cc(C(F)(F)F)ccc1C1CCN(Cc2nc3nccc4c3n2CCC4)CC1` [Compound 14, 2-((4-(2-Methoxy-4-(trifluoromethyl)phenyl)piperidin-1-yl)methyl)-5,6-dihydro-4H-imidazo [4,5,1-ij][1,7]naphthyridine], for which, in data set [1], the half-life at 3 μM was determined as 1.23 h and the intrinsic clearance (microsomal CLint) (commonly the rate of metabolic loss divided by the concentration) at 3 μM was 18.1 µL/min/mg. The “The plasma stability: the intact ± SEM at 120 min” value in data set [3] came out at 89.2 ± 0.6%. Also, on mGluR2 [4], the half-maximal inhibitory concentration (IC50) came to 0.0105 ± 0.0005 µM.
Take `COc1cc(C(F)(F)F)ccc1OC[C@@H]1[C@H]2CN(Cc3nc4ncccc4n3C)C[C@@H]12` [Compound 15, 2-(((1R,5S,6R)-6-((2-methoxy-4-(trifluoromethyl)phenoxy)methyl)-3-azabicyclo[3.1.0]hexan-3-yl)methyl)-1-methyl-1H-imidazo[4,5-b]pyridine]: the half-inhibitory concentration (IC50) on mGluR2 [4] (read-out: IC50 ± SEM, mGluR2 transfected CHO cells, 10 nM [3H]JNJ-46281222) stood at 0.0105 ± 0.0079 µM. Also, the EC50 (usually the concentration giving half of the maximal effect) on mGluR2 [7] worked out at 7.8 µM.
Turning to `Fc1ccc(N2CCN(Cc3ccn4c(CC5CC5)nnc4c3C(F)(F)F)CC2)c(F)c1` [Compound 17, 3-(Cyclopropylmethyl)-7-((4-(2,4-difluorophenyl)piperazin-1-yl)methyl)-8-(trifluoromethyl)[1,2,4]triazolo[4,3-a]pyridine, reference compound], the “decrease of [11C]13 uptake in different brain areas” value on mGluR2 [6] is on record as 28–37%.
Take `COc1ccc([C@@H]2Sc3ccccc3N(CCN(C)C)C(=O)[C@@H]2OC(C)=O)cc1` [Diltiazem, reference compound]: the “The plasma stability: the intact ± SEM at 120 min” value in [3] is given as 43.2 ± 0.8%.
For `COc1cc(NC(=O)c2ccccn2)ccc1Cl` [ML128, reference compound], in [1], the half-life at 3 μM amounted to 0.07 h and the intrinsic metabolic clearance (microsomal CLint) at 3 μM is 317 µL/min/mg.
On to `Cn1c(=O)c2[nH]cnc2n(C)c1=O` [theophylline], for which, in data set [8], the “Pe of quality control standard” value was 0.12 ×10⁻⁶ cm/s.
